Data as given in patent publication US5124347A, “3-5-ditertiarybutylphenyl-4-hydroxymethylidene derivatives of 1,3-dihydro-2H-indole-2-ones as antiinflammatory agents” (Warner-Lambert Co., priority 1991, dated 1992).
Where two headings read alike, the source gives them in different places.

Columns and labels:
5-lipoxygenase = biological target: T1, 5-lipoxygenase (Rattus norvegicus, UniProt P12527); experiment: ARBL whole cell 5-lipoxygenase assay (RBL-1 cells, inhibition of LTB4 formation); assay type: cell-based; conditions: calcium ionophore A23187 (5 μM)
T1 construct: host or cells: RBL-1 (rat basophilic leukemia)
T1 sequence (P12527 1-673): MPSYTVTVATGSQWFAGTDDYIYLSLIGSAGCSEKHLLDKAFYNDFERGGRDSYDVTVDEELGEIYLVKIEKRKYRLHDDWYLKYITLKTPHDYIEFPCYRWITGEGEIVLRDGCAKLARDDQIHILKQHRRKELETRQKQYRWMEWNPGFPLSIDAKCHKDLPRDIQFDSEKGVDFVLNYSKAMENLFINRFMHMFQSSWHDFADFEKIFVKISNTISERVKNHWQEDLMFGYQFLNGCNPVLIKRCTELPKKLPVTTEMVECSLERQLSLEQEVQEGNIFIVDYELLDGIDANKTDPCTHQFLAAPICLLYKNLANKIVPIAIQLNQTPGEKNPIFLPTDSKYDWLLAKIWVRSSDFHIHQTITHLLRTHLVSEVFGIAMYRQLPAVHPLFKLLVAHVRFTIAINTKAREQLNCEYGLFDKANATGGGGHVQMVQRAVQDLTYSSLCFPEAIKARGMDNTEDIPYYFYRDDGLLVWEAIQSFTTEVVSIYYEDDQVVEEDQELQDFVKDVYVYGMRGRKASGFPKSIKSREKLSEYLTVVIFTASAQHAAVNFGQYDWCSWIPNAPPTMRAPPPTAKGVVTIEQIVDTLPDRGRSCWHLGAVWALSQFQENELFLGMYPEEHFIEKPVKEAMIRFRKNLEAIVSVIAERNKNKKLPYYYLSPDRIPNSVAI
Method: (§1) ARBL/ARBC WHOLE CELL 5-LIPOXYGENASE AND CYCLOOXYGENASE ASSAYS
(§2) The rat basophilic leukemia cell line (RBL-1) was obtained from the American Type Culture Collection (Rockville, Md.).
(§3) Radioimmunoassay (RIA) kits of LTB4 and PGF2α were obtained from Amersham (Arlington Heights, Ill.) and Seragen (Boston, Mass.), respectively.
(§4) All tissue culture media were obtinaed from GIBCO (Grand Island, N.Y.).
(§5) RBL-1 cells are grown in suspension culture in Eagle's minimum essential medium supplemented with 12% fetal bovine serum at 37° C. in an incubator supplied with air-5% carbon dioxide. Cells are harvested by centrifugation. They are washed with cold phosphate-buffered saline, pH 7.4 (PBS; NaCl, 7.1 g; Na2 HPO4, 1.15 g; KH2 PO4, 0.2 g; and KCl, 0.2 g/L). Cells are finally suspended in PBS containing 1.0 mM calcium at a density of 2×10^6 cells/mL. Cells are incubated […] test agent (in DMSO) (1% DMSO is without effect on arachidonic acid metabolism) for 10 minutes at room temperature. Calcium ionophore A23187 (5 μM) is added and cells are incubated for 7 minutes at 37° C. The reaction is stopped by chilling the tubes on ice for 10 minutes. Cells are separated by centrifugation and the supernatant is stored at -20° C. Aliquots (100 μL) are anlyzed for LTB4 and PGF2α using radioimmunoassay kits as provided by the supplier.
(§6) Table 1 contains biochemical data for compounds of formula I obtained from this whole cell assay as amount of inhibition at 10 μM or IC50 s which are calculated as the concentration of a test compound in micromoles (μM) causing 50% inhibition of LTB4 or PGF2α formation.

cyclooxygenase = biological target: T2, cyclooxygenase (Rattus norvegicus, UniProt Q63921); experiment: ARBC whole cell cyclooxygenase assay (RBL-1 cells, inhibition of PGF2α formation); assay type: cell-based; conditions: calcium ionophore A23187 (5 μM)
T2 construct: host or cells: RBL-1 (rat basophilic leukemia)
T2 sequence (Q63921 27-602): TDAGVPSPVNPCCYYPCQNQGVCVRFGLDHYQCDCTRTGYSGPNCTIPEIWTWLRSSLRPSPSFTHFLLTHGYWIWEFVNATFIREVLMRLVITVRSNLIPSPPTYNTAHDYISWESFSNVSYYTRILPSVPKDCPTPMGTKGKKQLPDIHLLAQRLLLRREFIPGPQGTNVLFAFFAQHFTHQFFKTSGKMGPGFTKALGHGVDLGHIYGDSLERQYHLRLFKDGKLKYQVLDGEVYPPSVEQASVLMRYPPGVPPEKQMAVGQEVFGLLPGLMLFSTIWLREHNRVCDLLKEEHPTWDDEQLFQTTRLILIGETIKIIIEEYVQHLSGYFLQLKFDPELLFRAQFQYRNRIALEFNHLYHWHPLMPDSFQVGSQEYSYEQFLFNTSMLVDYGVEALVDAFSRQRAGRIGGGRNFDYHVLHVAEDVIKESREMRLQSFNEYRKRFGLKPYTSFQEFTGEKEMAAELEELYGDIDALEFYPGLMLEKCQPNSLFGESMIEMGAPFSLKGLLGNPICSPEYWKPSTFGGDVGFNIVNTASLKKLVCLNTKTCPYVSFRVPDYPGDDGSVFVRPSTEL
Method: as §1, §2, §3, §4, §5, §6

[1] = tested on: Mycobacterium-Induced Rat Footpad Edema; experiment: Mycobacterium-Induced Rat Footpad Edema Assay (MFE); assay type: in vivo; conditions: at 10 m/k, dosed one hour before Mycobacterium and Days 1 and 2, 72 hours
Method: Mycobacterium - Induced Rat Footpad Edema Assay (MFE): Protocol Mycobacterium butyricum (5 mg/ml) is suspended in paraffin oil by sonication for ten minutes in an ice bath. Footpad edema is induced on Day 0 by injecting 0.1 ml of the Mycobacterium mixture into the left hindpaw of lightly anesthetized rats. Swelling in the injected hindpaw is determined by mercury plethysmography 72 hours after injection. Groups of rats are treated with test compounds (suspended in 0.5% hydroxypropyl methylcellulose with 0.2% Tween-80) or vehicle one hour before Mycobacterium injection and on Days 1 and 2. Inhibition of swelling is determined by comparing the change in hindpaw volume in compound- and vehicle-treated rats. An ID40 (the dose at which swelling is inhibited by 40%) is calculated by probit analysis. Table 1 also contains biochemical data for compounds of formula I obtained from the CFE and MFE assays.

[2] = tested on: Carrageenan-Induced Rat Foot Paw Edema; experiment: Carrageenan-Induced Rat Foot Paw Edema-2 (CFE-2) Assay; assay type: in vivo; conditions: at 10 m/k, dosed one hour before carrageenan, edema at five hours
Method: Carrageenan-Induced Rat Foot Paw Edema-2 (CFE-2) Assay: Protocol
Carrageenan solution (1% w/v) is prepared by dissolving 100 mg carrageenan (Marine Colloidal Div., Springfield N.J.) in 10 ml of sterile saline (0.9%) solution (travenol). The solution is vortexed for 30 to 45 minutes. Animals are dosed with compound one hour before carrageenan challenge. Foot paw edema is induced by injecting 0.10 ml of the 1% carrageenan subcutaneously into the plantar portion of the right hind paw of each rat under light anesthesia. Initial foot paw volume is measured immediately following carrageenan challenge using mercury plethysmography (Buxco Electronics). Edema is measured five hours after carrageenan. The difference between the five-hour and the initial paw volume is expressed as delta edema. The delta edema for each test group of animals is used to calculate the percent inhibition of edema achieved by the compound at the test dose compared with the vehicle control group. The ID40 (the dose at which swelling is inhibited by 40%) is calculated by probit analysis for the dose at which 40 percent inhibition occurs.
Table 1 also contains biochemical data for compounds of formula I obtained from the CFE and MFE assays.

[3] = read-out: ARBC, inhibition of PGF2α (class symbol N)
[4] = read-out: ARBC, inhibition of PGF2α

| SMILES | inhibition at 10 µM (5-lipoxygenase) | inhibition at 10 µM (cyclooxygenase; [3]) | further results |
| --- | --- | --- | --- |
| CC(C)(C)c1cc(/C=C2\C(=O)Nc3cccc(Cl)c32)cc(C(C)(C)C)c1O [Example 9, 3-[[3,5-bis(1,1-dimethylethyl)-4-hydroxyphenyl]methylene]-4-chloro-1,3-dihydro-2H-indole-2-one, (Z)-] | 48% | < 40% | – |
| Cc1ccc2c(c1)/C(=C/c1cc(C(C)(C)C)c(O)c(C(C)(C)C)c1)C(=O)N2 [Example 2, 3-[[3,5-Bis(1,1-dimethylethyl)-4-hydroxyphenyl]-methylene]-1,3-dihydro-5-methyl-2H-indole-2-one, (Z)] | 100% | < 40% | – |
| COc1cccc2c1NC(=O)/C2=C\c1cc(C(C)(C)C)c(O)c(C(C)(C)C)c1 [Example 5, 3-[[3,5-bis(1,1-dimethylethyl)-4-hydroxyphenyl]-methylene]-1,3-dihydro-7-methoxy-2H-indol-2-one, (Z)-] | – | – | MFE, inhibition of swelling [1]: 33%; IC50 (5-lipoxygenase): 430 nM; IC50 (cyclooxygenase): 6070 nM; CFE, inhibition of edema [2]: 43% |
| COc1ccc2c(c1)/C(=C/c1cc(C(C)(C)C)c(O)c(C(C)(C)C)c1)C(=O)N2C [Example 8, 3-[[3,5-bis(1,1-dimethylethyl)-4-hydroxyphenyl]methylene]-1,3-dihydro-5-methoxy-1-methyl-2H-indole-2-one, (Z)-] | 100% | < 40% | – |
| CN1C(=O)/C(=C\c2cc(C(C)(C)C)c(O)c(C(C)(C)C)c2)c2ccccc21 [Example 4] | 100% | – | inhibition at 10 µM (cyclooxygenase; [4]): 30% |
| Cc1cccc2c1/C(=C/c1cc(C(C)(C)C)c(O)c(C(C)(C)C)c1)C(=O)N2 [Example 10, 3-[[3,5-bis(1,1-dimethylethyl)-4-hydroxyphenyl]methylene]-1,3-dihydro-4-methyl-2H-indole-2-one, (Z)-] | 100% | < 40% | – |
| CCOC(=O)c1ccc2c(c1)/C(=C/c1cc(C(C)(C)C)c(O)c(C(C)(C)C)c1)C(=O)N2 [Example 6, 3-[[3,5-bis(1,1-dimethylethyl)-4-hydroxyphenyl]-methylene]-2,3-dihydro-2-oxo-1H-indole-5-carboxylic acid, ethyl ester (Z)-] | 100% | < 40% | – |
| Cc1cccc2c1NC(=O)/C2=C\c1cc(C(C)(C)C)c(O)c(C(C)(C)C)c1 [Example 7] | 100% | < 40% | – |
| CC(C)(C)c1cc(/C=C2\C(=O)N(C(N)=O)c3ccccc32)cc(C(C)(C)C)c1O [Example 3] | 100% | – | inhibition at 10 µM (cyclooxygenase; [4]): 32% |
| CC(C)(C)c1cc(/C=C2\C(=O)Nc3ccc(C(=O)O)cc32)cc(C(C)(C)C)c1O [Example 12, 3-[[3,5-bis(1,1-dimethylethyl)-4-hydroxyphehyl]methylene]-2,3-dihydro-2-oxo-1H-indole-5-carboxylic acid, (Z)-] | 100% | < 40% | – |
| CC(C)(C)c1cc(/C=C2\C(=O)Nc3ccccc32)cc(C(C)(C)C)c1O [Example 1, 3-[[3,5-bis(1,1-dimethylethyl)-4-hydroxyphenyl]methylene]1,3,-dihydro-2H-indole-2-one, (Z)-] | – | – | MFE, inhibition of swelling [1]: 42%; IC50 (5-lipoxygenase): 930 nM; IC50 (cyclooxygenase): 1500 nM |
